Reference: patent US4005214A (Hoffmann-La Roche Inc., priority 1974, dated 1977)
Counter-ions that a name gives are not always drawn.

Experiments:
[1] = tested on: Escherichia coli; test: activity (CD 50) against Escherichia coli upon subcutaneous administration to mice; assay type: in vivo
[2] = acute toxicity in mice (LD 50); assay type: in vivo; conditions: mouse, in vivo, iv, intravenous administration, read-out: LD 50 (Lethal Dose) i.v.
[3] = tested on: mice; test: acute toxicity in mice (LD 50); assay type: in vivo; conditions: for LD 50 (Lethal Dose) s.c.: subcutaneous administration
[4] = pH of about 9; cited from earlier work

| Compound | ED50 ([1]; sc, read-out: CD 50 (Curative Dose)) [mg/kg] | LD50 [2] [mg/kg] | LD 50 (Lethal Dose) s.c. [3] [mg/kg] | stability at high pH [4] | CD 50 (Curative Dose) [1] [mg/kg] | LD 50 (Lethal Dose) i.v. ([3]; intravenous administration) [mg/kg] |
| --- | --- | --- | --- | --- | --- | --- |
| CC1(C)S[C@@H]2[C@H](NC(=O)[C@H](N)c3ccc(O)cc3)C(=O)N2[C@H]1C(=O)O [X, choline salt of amoxicillin] | 5.9 | 250 to 500 | 2000 to 4000 | – | – | – |
| CC1(C)S[C@@H]2[C@H](NC(=O)[C@H](N)c3ccc(O)cc3)C(=O)N2[C@H]1C(=O)O [Amoxicillin, D-(-)-alpha-amino-parahydroxybenzyl penicillin] | – | – | – | very unstable | – | – |
| CC1(C)S[C@@H]2[C@H](NC(=O)[C@H](N)c3ccc(O)cc3)C(=O)N2[C@H]1C(=O)O [Y, N-methyl-D-glucamine salt of amoxicillin] | – | – | > 5000 | – | 5.0 | 500 to 1000 |
